Where “and” joins values, the source holds several entries; their conditions need not be identical. Identical values can stand only once. Inconclusive results and toxic doses are left out. The calls were made as follows: active = survival T/C of 150% or more; inactive = T/C below 125% in these data.
System: P388 leukemia ip, CD2F1 mice, survival T/C
Test: NCI In Vivo Anticancer Drug Screen. Data for tumor model P388 Leukemia (intraperitoneal) in CD2F1 (CDF1) mice
Settings: endpoint: median survival time, higher = longer survival
Outline: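 Mice carrying the transplanted tumor received test compound or vehicle. Survival was recorded in each group, and the value is the treated-group measurement divided by that of the vehicle-treated control group.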

[1] = dose: 12.5 mg/kg/injection, schedule: Q01DX009 (ip), vehicle: saline with Tween-80
[2] = dose: 50.0 mg/kg/injection, schedule: Q01DX005 (ip), vehicle: Klucel (hydroxypropylcellulose) (HPC)
[3] = dose: 100.0 mg/kg/injection, schedule: Q01DX005 (ip), vehicle: Klucel (hydroxypropylcellulose) (HPC)
[4] = dose: 200.0 mg/kg/injection, schedule: Q01DX005 (ip), vehicle: Klucel (hydroxypropylcellulose) (HPC)
[5] = dose: 100.0 mg/kg/injection, schedule: Q04DX003 (ip), vehicle: saline with Tween-80
[6] = dose: 200.0 mg/kg/injection, schedule: Q04DX003 (ip), vehicle: saline with Tween-80
[7] = dose: 50.0 mg/kg/injection, schedule: Q01DX009 (ip), vehicle: Klucel (hydroxypropylcellulose) (HPC)
[8] = dose: 100.0 mg/kg/injection, schedule: Q01DX009 (ip), vehicle: Klucel (hydroxypropylcellulose) (HPC)
[9] = dose: 50.0 mg/kg/injection, schedule: Q01DX009 (ip), vehicle: saline with Tween-80
[10] = dose: 100.0 mg/kg/injection, schedule: Q01DX009 (ip), vehicle: saline with Tween-80
[11] = dose: 60.0 mg/kg/injection, schedule: Q01DX005 (ip), vehicle: saline
[12] = dose: 120.0 mg/kg/injection, schedule: Q01DX005 (ip), vehicle: saline
[13] = dose: 240.0 mg/kg/injection, schedule: Q01DX005 (ip), vehicle: saline
[14] = dose: 400.0 mg/kg/injection, schedule: Q04DX003 (ip), vehicle: saline with Tween-80
[15] = dose: 100.0 mg/kg/injection, schedule: Q04DX002 (ip), vehicle: saline with Tween-80
[16] = dose: 200.0 mg/kg/injection, schedule: Q04DX002 (ip), vehicle: saline with Tween-80
[17] = dose: 400.0 mg/kg/injection, schedule: Q04DX002 (ip), vehicle: saline with Tween-80
[18] = dose: 50.0 mg/kg/injection, schedule: Q01DX005 (ip), vehicle: saline with Tween-80
[19] = dose: 100.0 mg/kg/injection, schedule: Q01DX005 (ip), vehicle: saline with Tween-80
[20] = dose: 200.0 mg/kg/injection, schedule: Q01DX009 (ip), vehicle: saline with Tween-80
[21] = dose: 200.0 mg/kg/injection, schedule: Q01DX009 (ip), vehicle: Klucel (hydroxypropylcellulose) (HPC)

Measured: T/C

O=C1C=CC(=O)N1c1cccc2c1CCCC2
inactive: dose: 6.25 mg/kg/injection, schedule: Q01DX009 (ip), vehicle: saline with Tween-80 105 % of control | [1] 114 % of control

C=C(Br)C(=NC(C)(C)C)Nc1ccc(Cl)cc1
inactive: dose: 6.25 mg/kg/injection, schedule: Q01DX005 (ip), vehicle: Klucel (hydroxypropylcellulose) (HPC) 107 % of control | dose: 12.5 mg/kg/injection, schedule: Q01DX005 (ip), vehicle: Klucel (hydroxypropylcellulose) (HPC) 114 % of control | [2] 98 % of control | [3] 103 % of control | [4] 102 % of control

C[N+](C)(C)[C@H]1CCCC[C@@H]1O
inactive: dose: 50.0 mg/kg/injection, schedule: Q01DX005 (ip), vehicle: distilled water + alcohol 104 % of control | dose: 100.0 mg/kg/injection, schedule: Q01DX005 (ip), vehicle: distilled water + alcohol 99 % of control | dose: 200.0 mg/kg/injection, schedule: Q01DX005 (ip), vehicle: distilled water + alcohol 105 % of control

Cn1ncc2c(NCc3ccccc3)ncnc21
inactive: dose: 6.25 mg/kg/injection, schedule: Q01DX009 (ip), vehicle: saline sonified 95 % of control | dose: 12.5 mg/kg/injection, schedule: Q01DX009 (ip), vehicle: saline sonified 95 % of control | dose: 25.0 mg/kg/injection, schedule: Q01DX009 (ip), vehicle: saline sonified 109 % of control | dose: 50.0 mg/kg/injection, schedule: Q04DX003 (ip), vehicle: saline with Tween-80 109 % of control | [5] 104 % of control | [6] 95 % of control

COc1cccc(CC#N)c1O
inactive: dose: 25.0 mg/kg/injection, schedule: Q01DX009 (ip), vehicle: Klucel (hydroxypropylcellulose) (HPC) 105 % of control | [7] 100 % of control | [8] 106 % of control

C[Si](CCCNCCN)(O[Si](C)(CCCNCCN)c1ccccc1)c1ccccc1 (stereo not drawn)
inactive: dose: 15.0 mg/kg/injection, schedule: Q01DX005 (ip), vehicle: saline with Tween-80 109 % of control | dose: 30.0 mg/kg/injection, schedule: Q01DX005 (ip), vehicle: saline with Tween-80 105 % of control | dose: 60.0 mg/kg/injection, schedule: Q01DX005 (ip), vehicle: saline with Tween-80 100 % of control

CNC(=O)OCc1ccc(NCCN(C)C)c2c(=O)c3cc(OS(=O)(=O)c4ccc(C)cc4)ccc3oc12
inactive: dose: 25.0 mg/kg/injection, schedule: Q01DX005 (ip), vehicle: water 90 % of control | dose: 50.0 mg/kg/injection, schedule: Q01DX005 (ip), vehicle: water 100 % of control | dose: 100.0 mg/kg/injection, schedule: Q01DX005 (ip), vehicle: water 102 % of control | dose: 200.0 mg/kg/injection, schedule: Q01DX005 (ip), vehicle: water 106 % of control

CCCCCCN(CCCCCC)P(=O)(N1CC1C)N1CC1C (stereo not drawn)
inactive: [1] 122 % of control | dose: 12.5 mg/kg/injection, schedule: Q04DX003 (ip), vehicle: saline 95 % of control | dose: 25.0 mg/kg/injection, schedule: Q01DX009 (ip), vehicle: saline with Tween-80 118 % of control | dose: 25.0 mg/kg/injection, schedule: Q04DX003 (ip), vehicle: saline 95 % of control | dose: 50.0 mg/kg/injection, schedule: Q04DX003 (ip), vehicle: saline 95 % of control

CCC(C)C[c-]1[c-][c-][c-][c-]1.CCC(C)C[c-]1[c-][c-][c-][c-]1.[Cl][Zr][Cl] (stereo not drawn)
inactive: [9] 90 % of control | [10] 88 % of control

O=C1CN=CN1
inactive: [11] 96 % of control | [12] 96 % of control | [13] 102 % of control

COc1ccc(C2C3C(=O)NC(=O)C2C(=O)NC3=O)cc1OC (stereo not drawn)
inactive: [11] 101 % of control | [12] 108 % of control | [13] 90 % of control

CCOC(=O)c1cc([N+](=O)[O-])c(SSc2sc(C(=O)OCC)cc2[N+](=O)[O-])s1
inactive: [5] 104 % of control | [6] 96 % of control | [14] 95 % of control

CC(SC(C)C(=O)O)C(=O)O (stereo not drawn)
inactive: dose: 100.0 mg/kg/injection, schedule: Q04DX002 (ip), vehicle: saline 97 % of control | dose: 200.0 mg/kg/injection, schedule: Q04DX002 (ip), vehicle: saline 109 % of control

O=C(O)c1ccccc1-c1ccccc1[N+](=O)[O-]
inactive: dose: 50.0 mg/kg/injection, schedule: Q01DX009 (ip), vehicle: saline 88 % of control | dose: 100.0 mg/kg/injection, schedule: Q01DX009 (ip), vehicle: saline 97 % of control | dose: 200.0 mg/kg/injection, schedule: Q01DX009 (ip), vehicle: saline 97 % of control

CN(C)C(=O)C1SCCCS1
inactive: [15] 107 % of control | [16] 108 % of control | [17] 108 % of control

COC1=CC(=O)c2ncccc2C1=O
inactive: dose: 1.56 mg/kg/injection, schedule: Q01DX009 (ip), vehicle: DMSO 101 % of control | dose: 3.13 mg/kg/injection, schedule: Q01DX009 (ip), vehicle: DMSO 100 % of control | dose: 6.25 mg/kg/injection, schedule: Q01DX009 (ip), vehicle: DMSO 100 % of control | dose: 12.5 mg/kg/injection, schedule: Q01DX009 (ip), vehicle: DMSO 111 % of control and 96 % of control | dose: 25.0 mg/kg/injection, schedule: Q01DX009 (ip), vehicle: DMSO 101 % of control and 113 % of control

CCOc1nc(N)c(C(=O)c2ccc(O)c(O)c2)s1
inactive: [2] 111 % of control | [3] 109 % of control | [4] 87 % of control

CC1(Cl)CC(C)(/C=C/Cl)C(Br)CC1Cl (stereo not drawn)
inactive: dose: 41.5 mg/kg/injection, schedule: Q01DX005 (ip), vehicle: Klucel (hydroxypropylcellulose) (HPC) 91 % of control | dose: 83.0 mg/kg/injection, schedule: Q01DX005 (ip), vehicle: Klucel (hydroxypropylcellulose) (HPC) 91 % of control | dose: 166.0 mg/kg/injection, schedule: Q01DX005 (ip), vehicle: Klucel (hydroxypropylcellulose) (HPC) 100 % of control

CCC(=N\N=C(N)N)/C(C)=N\N=C(N)N
inactive: [18] 99 % of control | [19] 96 % of control

CN1c2ccccc2S(=O)(=O)n2c(-c3ccccc3Cl)nnc21
inactive: dose: 25.0 mg/kg/injection, schedule: Q01DX001 (ip), vehicle: saline with Tween-80 97 % of control | dose: 50.0 mg/kg/injection, schedule: Q01DX001 (ip), vehicle: saline with Tween-80 96 % of control | dose: 100.0 mg/kg/injection, schedule: Q01DX001 (ip), vehicle: saline with Tween-80 100 % of control and 95 % of control | dose: 400.0 mg/kg/injection, schedule: Q01DX001 (ip), vehicle: saline with Tween-80 90 % of control

COc1ccc(/C=N\N=C(/[O-])c2ccccc2O)cc1.COc1ccc(/C=N\N=C(/[O-])c2ccccc2O)cc1.[OH3+].[OH3+].[Zn+2]
inactive: [15] 100 % of control | [16] 98 % of control | [17] 91 % of control

O=C(O)CC(CC(=O)O)c1ccc2c(c1)OCO2
inactive: [2] 99 % of control | [3] 109 % of control | [4] 99 % of control

C1CCCN(N2CCOCC2)CC1
inactive: dose: 100.0 mg/kg/injection, schedule: Q01DX001 (ip), vehicle: saline 104 % of control | dose: 200.0 mg/kg/injection, schedule: Q01DX001 (ip), vehicle: saline 98 % of control | dose: 400.0 mg/kg/injection, schedule: Q01DX001 (ip), vehicle: saline 101 % of control

CC(C)(C)N=C(CCN1CCCCC1)Nc1cccc(Cl)c1
inactive: [9] 110 % of control | [10] 106 % of control | [20] 98 % of control

Cc1ccc(N=Cc2cccs2)cc1Cl
inactive: [7] 94 % of control | [8] 113 % of control | [21] 106 % of control

C=CCn1c(=S)[nH]c2ccccc2c1=O
inactive: [5] 90 % of control | [6] 90 % of control | [14] 90 % of control

Nc1nnc(Cc2ccccc2[N+](=O)[O-])c(=O)[nH]1
inactive: [7] 113 % of control | [8] 115 % of control | [21] 105 % of control

Nc1[nH]c(=O)[nH]c(=O)c1N
inactive: [9] 100 % of control | [10] 100 % of control | [20] 100 % of control

Cc1cccc(NCc2ccccn2)n1
inactive: [18] 103 % of control | [19] 103 % of control
